Experiments:
[1] = system: normal NK cells expanded with K562-aAPC; experiment: percent inhibition of viability; higher = more inhibition; details: 72 h, IL-2 2.5 ng/mL
Method: (§1)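 Drug sensitivity and resistance testing on K562-aAPC-expanded normal NK cells: 5 concentrations (10-fold steps over a 10,000-fold range), 72 h at 37 °C, viability by CellTiter-Glo normalised to DMSO and benzethonium chloride controls; DSS from the fitted curve.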

[2] = system: DERL-7 (IL-2 2.5 ng/mL); experiment: as above; details: 72 h
[3] = system: IMC-1 (IL-2 20 ng/mL); experiment: as above; details: 72 h
[4] = system: KAI3 (IL-2 2.5 ng/mL); experiment: as above; details: 72 h
[5] = system: KHYG-1 (IL-2 2.5 ng/mL); experiment: as above; details: 72 h
[6] = system: NK-92 (IL-2 2.5 ng/mL); experiment: as above; details: 72 h
[7] = system: NK-YS (IL-2 2.5 ng/mL); experiment: as above; details: 72 h
[8] = system: NKL (IL-2 2.5 ng/mL); experiment: as above; details: 72 h
[9] = system: SNK-6 (IL-2 2.5 ng/mL); experiment: as above; details: 72 h
[10] = system: YT (IL-2 2.5 ng/mL); experiment: as above; details: 72 h
[11] = system: normal primary NK cells, pool 1 (3 donors) (IL-2 2.5 ng/mL); experiment: as above; details: 72 h
[12] = system: normal primary NK cells, pool 1 (3 donors), resting (IL-2 0 ng/mL); experiment: as above; details: 72 h
[13] = system: normal primary NK cells, pool 2 (3 donors) (IL-2 2.5 ng/mL); experiment: as above; details: 72 h
[14] = system: normal primary NK cells, pool 3 (3 donors) (IL-2 2.5 ng/mL); experiment: as above; details: 72 h
[15] = system: normal NK cells expanded with K562-aAPC; experiment: drug sensitivity score (DSS) (DSS units); higher = more sensitive; extreme values may be limits of the assay; details: 72 h; IL-2 2.5 ng/mL
Method: as §1

[16] = system: DERL-7 (IL-2 2.5 ng/mL); experiment: as above; details: 72 h
[17] = system: IMC-1 (IL-2 20 ng/mL); experiment: as above; details: 72 h
[18] = system: KAI3 (IL-2 2.5 ng/mL); experiment: as above; details: 72 h
[19] = system: KHYG-1 (IL-2 2.5 ng/mL); experiment: as above; details: 72 h
[20] = system: NK-92 (IL-2 2.5 ng/mL); experiment: as above; details: 72 h
[21] = system: NK-YS (IL-2 2.5 ng/mL); experiment: as above; details: 72 h
[22] = system: NKL (IL-2 2.5 ng/mL); experiment: as above; details: 72 h
[23] = system: SNK-6 (IL-2 2.5 ng/mL); experiment: as above; details: 72 h
[24] = system: YT (IL-2 2.5 ng/mL); experiment: as above; details: 72 h
[25] = system: normal primary NK cells, pool 1 (3 donors) (IL-2 2.5 ng/mL); experiment: as above; details: 72 h
[26] = system: normal primary NK cells, pool 1 (3 donors), resting (IL-2 0 ng/mL); experiment: as above; details: 72 h
[27] = system: normal primary NK cells, pool 2 (3 donors) (IL-2 2.5 ng/mL); experiment: as above; details: 72 h
[28] = system: normal primary NK cells, pool 3 (3 donors) (IL-2 2.5 ng/mL); experiment: as above; details: 72 h

CCC/C=C/C=C/C(=O)O[C@H]1/C(=C/C(=O)OC)C[C@H]2C[C@H]([C@@H](C)O)OC(=O)C[C@H](O)C[C@@H]3C[C@H](OC(C)=O)C(C)(C)[C@](O)(C[C@@H]4C/C(=C/C(=O)OC)C[C@H](/C=C/C(C)(C)[C@]1(O)O2)O4)O3 [Bryostatin 1] (max concentration tested 100 nM)
percent inhibition of viability [%]
Details | 0.01 nM | 0.1 nM | 1 nM | 10 nM | 100 nM
[1] | -6.34 | -41.9 | -55.2 | -31.9 | -30.3
[2] | -2.14 | -19.4 | 24.4 | 20 | 35.2
[3] | -3.95 | 3.27 | 75.6 | 68.3 | 62.7
[4] | 0.24 | 5.23 | 4.64 | 21.7 | -6.8
[5] | 1.17 | 35.4 | 102 | 106 | 99.2
[6] | -10.7 | 25.5 | 87.5 | 103 | 95.4
[7] | -5.4 | -9.97 | -7.91 | 1.59 | -4.21
[8] | -18.8 | -58.9 | -74.9 | -67.5 | -81.5
[9] | 13.4 | 39.5 | 64.4 | 35.5 | 18
[10] | 2.73 | -2.33 | -3.22 | 1.88 | 1.24
[11] | -10.4 | -18.6 | -14.9 | -23.1 | -10.7
[12] | -14.3 | 14.4 | -0.07 | -6.68 | 5.47
[13] | -15.1 | -25.1 | -48.2 | -38 | -37.6
[14] | -5.42 | -30.1 | -40.2 | -35 | -20.7

Details | drug sensitivity score
[15] | 0
[16] | 8.96
[17] | 23.9
[18] | 0
[19] | 35.4
[20] | 31.7
[21] | 0
[22] | 0
[23] | 14.9
[24] | 0
[25] | 0
[26] | 0
[27] | 0
[28] | 0

Cc1c(Cn2c(C)nc3c(C(=O)O)cc(N4CCOCC4)cc32)cccc1C(F)(F)F (max concentration tested 10000 nM)
percent inhibition of viability [%]
Details | 1 nM | 10 nM | 100 nM | 1000 nM | 10000 nM
[1] | 2.47 | -0.33 | 2.82 | 11.7 | 17.4
[2] | 3.53 | -4.49 | 1.36 | 12.1 | 13.4
[3] | -6.71 | -4.25 | -1.73 | -3.09 | 11.3
[4] | 8.08 | 9.48 | 9.01 | 12.5 | 37.9
[5] | -2.27 | 6.11 | 14.1 | 8.86 | 38.2
[6] | -7.97 | -2.84 | 22 | 7.51 | 49
[7] | -2.91 | -0.33 | 7.31 | 5.6 | 15.8
[8] | -15.7 | -8.49 | -1.03 | 1.51 | 14.1
[9] | -7.05 | -21.9 | 3.71 | -6.21 | 13.1
[10] | 1 | 6.27 | 9.12 | 14.3 | 16.5
[11] | -6.21 | 1.65 | -5.56 | -4.02 | 4.77
[12] | -5.25 | 4.41 | 3.22 | -19.1 | -11.9
[13] | -11.1 | -13.9 | -1.99 | 1.31 | 13.6
[14] | -1.55 | 0.84 | 4.49 | -0.45 | 11.4

Details | drug sensitivity score
[15] | 1.17
[16] | 0.85
[17] | 0
[18] | 3.6
[19] | 3.2
[20] | 3.86
[21] | 0.34
[22] | 0.29
[23] | 0.03
[24] | 1.67
[25] | 0
[26] | 0
[27] | 0.23
[28] | 0.01

Cc1nc(Nc2n[nH]c3c2CN(C(=O)N[C@H](CN(C)C)c2ccccc2)C3(C)C)c2sccc2n1 (max concentration tested 10000 nM)
percent inhibition of viability [%]
Details | 1 nM | 10 nM | 100 nM | 1000 nM | 10000 nM
[1] | 4.54 | 6.07 | 22.4 | 41.8 | 101
[2] | 5.19 | 43.4 | 60.3 | 59.5 | 100
[3] | -7.89 | 94 | 100 | 100 | 101
[4] | 9.34 | 25.2 | 38.2 | 52.7 | 103
[5] | 3.44 | 16.8 | 81.4 | 96.4 | 106
[6] | 2.81 | 5.29 | 27.2 | 59.5 | 105
[7] | 0.35 | 42.8 | 54.1 | 57.7 | 101
[8] | -10.4 | 9.99 | 31.3 | 50.3 | 103
[9] | -2.61 | 16.3 | 16 | 31.2 | 87.1
[10] | 0.99 | 13.6 | 41.7 | 56 | 104
[11] | 5.07 | 3.65 | 18.4 | 34.4 | 98.8
[12] | 5.47 | -19.5 | 8.53 | 35.1 | 92.2
[13] | -7.71 | 9.61 | 27.4 | 49.4 | 98.1
[14] | -6.36 | 3.67 | 21.6 | 29.7 | 98.9

Details | drug sensitivity score
[15] | 11.5
[16] | 24.7
[17] | 41.6
[18] | 18.1
[19] | 29.5
[20] | 15.2
[21] | 23
[22] | 14.4
[23] | 8.41
[24] | 17.5
[25] | 9.34
[26] | 9.24
[27] | 13.5
[28] | 8.84

NC(=O)Nc1sc(-c2ccc(F)cc2)cc1C(N)=O [TPCA-1] (max concentration tested 25000 nM)
percent inhibition of viability [%]
Details | 2.5 nM | 25 nM | 250 nM | 2500 nM | 25000 nM
[1] | -0.68 | -4.88 | 18.2 | 88.4 | 98.1
[2] | 0.71 | 4.69 | 36.8 | 94 | 100
[3] | -2.64 | -8.76 | -6.99 | 3.86 | 99.3
[4] | -6.8 | -3.3 | 53.5 | 89.1 | 91.4
[5] | -2.05 | -6.88 | 25.8 | 101 | 97.8
[6] | -11.2 | -10.8 | 8.78 | 80.4 | 91.7
[7] | -6.85 | -4.02 | 17 | 58 | 94.8
[8] | -2.04 | -2.79 | 45.8 | 72.9 | 87.4
[9] | -12.6 | -19.3 | 33.2 | 75.8 | 93.2
[10] | -3.91 | -4.44 | 13.1 | 79.6 | 97.9
[11] | -12.8 | -10.6 | 13.2 | 73.4 | 94.3
[12] | -1.07 | 1.15 | 3.48 | 43.5 | 82.3
[13] | -8.08 | -4.41 | 24.2 | 69.5 | 87.1
[14] | -6.13 | -4.52 | 15.6 | 67.3 | 91.3

Details | drug sensitivity score
[15] | 18.4
[16] | 21.5
[17] | 6.04
[18] | 23
[19] | 21.9
[20] | 15.9
[21] | 13.2
[22] | 20
[23] | 18.2
[24] | 16.3
[25] | 15.2
[26] | 9.72
[27] | 15.8
[28] | 14.5

C[C@@H](Oc1ccc2[nH]nc(/C=C/c3cnn(CCO)c3)c2c1)c1c(Cl)cncc1Cl (max concentration tested 1000 nM)
percent inhibition of viability [%]
Details | 0.1 nM | 1 nM | 10 nM | 100 nM | 1000 nM
[1] | -0.71 | -1.93 | 22.3 | 94.3 | 97.8
[2] | -4.25 | -1.44 | 12.1 | 50 | 100
[3] | 2.17 | -5.43 | -8.61 | 21.8 | 98.1
[4] | 2.24 | 4.1 | 25 | 79.6 | 90.2
[5] | -1.37 | -1.77 | 23.3 | 101 | 98.7
[6] | -7.71 | -11 | 4.63 | 65.8 | 84.5
[7] | -6.71 | -5.42 | 10.9 | 60.3 | 93
[8] | -5.85 | 0.25 | 37.2 | 79.9 | 84.6
[9] | -12 | 0.34 | 23.3 | 95 | 92.3
[10] | -2.34 | -5.3 | -2.2 | 9.63 | 85.6
[11] | -3.85 | -11 | 2.43 | 60.1 | 72.1
[12] | -1.49 | -11.6 | -11.3 | 13.6 | 13.4
[13] | -12.2 | -5.79 | 27.6 | 62.9 | 71.7
[14] | -11.8 | -16.6 | 7.47 | 63.4 | 69.5

Details | drug sensitivity score
[15] | 20.3
[16] | 11.6
[17] | 8.86
[18] | 17.6
[19] | 21.6
[20] | 12.9
[21] | 12.9
[22] | 19.4
[23] | 20.8
[24] | 6.34
[25] | 11.4
[26] | 0.82
[27] | 15.3
[28] | 12.7

— the supplement of paper PMC5908809
